Laboratory results: ChEMBL document CHEMBL1201862, “PubChem BioAssay data set” (2004)
Activity calls are given as the source filed them.

Assays:
[1] = molecular target: T1, Apoptotic protease-activating factor 1 (Homo sapiens, UniProt O14727); format: functional
T1 sequence (O14727 whole entry): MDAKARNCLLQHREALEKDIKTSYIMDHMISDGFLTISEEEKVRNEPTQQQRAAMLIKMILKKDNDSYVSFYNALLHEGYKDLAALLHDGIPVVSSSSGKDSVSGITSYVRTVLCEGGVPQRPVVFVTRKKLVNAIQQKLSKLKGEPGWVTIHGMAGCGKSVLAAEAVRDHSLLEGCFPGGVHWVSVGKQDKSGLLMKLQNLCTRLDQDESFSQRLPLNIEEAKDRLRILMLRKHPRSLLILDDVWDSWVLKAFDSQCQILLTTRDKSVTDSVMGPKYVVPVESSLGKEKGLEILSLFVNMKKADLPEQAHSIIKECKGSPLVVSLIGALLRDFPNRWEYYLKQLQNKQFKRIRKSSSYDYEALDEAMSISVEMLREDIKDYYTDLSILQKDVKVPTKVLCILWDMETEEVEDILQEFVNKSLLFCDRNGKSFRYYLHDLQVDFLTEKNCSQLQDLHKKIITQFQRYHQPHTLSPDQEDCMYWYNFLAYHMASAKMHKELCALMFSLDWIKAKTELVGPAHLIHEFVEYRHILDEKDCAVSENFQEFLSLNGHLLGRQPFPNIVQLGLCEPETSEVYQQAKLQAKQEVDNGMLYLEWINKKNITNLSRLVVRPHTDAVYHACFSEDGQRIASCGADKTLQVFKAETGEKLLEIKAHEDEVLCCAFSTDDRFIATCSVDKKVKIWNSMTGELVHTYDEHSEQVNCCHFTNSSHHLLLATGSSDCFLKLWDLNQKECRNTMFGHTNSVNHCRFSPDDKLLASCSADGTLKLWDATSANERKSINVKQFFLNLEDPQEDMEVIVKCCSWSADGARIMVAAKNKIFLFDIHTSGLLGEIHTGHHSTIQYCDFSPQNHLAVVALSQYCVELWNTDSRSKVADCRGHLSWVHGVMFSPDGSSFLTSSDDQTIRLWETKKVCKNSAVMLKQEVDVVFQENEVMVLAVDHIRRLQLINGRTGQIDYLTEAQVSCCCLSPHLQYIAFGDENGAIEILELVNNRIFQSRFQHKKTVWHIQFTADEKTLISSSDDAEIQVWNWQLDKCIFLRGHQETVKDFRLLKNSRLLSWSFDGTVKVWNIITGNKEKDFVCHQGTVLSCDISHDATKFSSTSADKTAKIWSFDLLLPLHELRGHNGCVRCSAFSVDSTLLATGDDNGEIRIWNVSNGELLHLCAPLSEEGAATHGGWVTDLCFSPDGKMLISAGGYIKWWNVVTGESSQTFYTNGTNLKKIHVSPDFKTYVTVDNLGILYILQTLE

[2] = molecular target: T2, Sentrin-specific protease 8 (Homo sapiens, UniProt Q96LD8); format: functional;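 note: luminescence read-out of SENP8 inhibition, dose-response confirmation following an ultra-high-throughput screen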
T2 sequence (Q96LD8 whole entry): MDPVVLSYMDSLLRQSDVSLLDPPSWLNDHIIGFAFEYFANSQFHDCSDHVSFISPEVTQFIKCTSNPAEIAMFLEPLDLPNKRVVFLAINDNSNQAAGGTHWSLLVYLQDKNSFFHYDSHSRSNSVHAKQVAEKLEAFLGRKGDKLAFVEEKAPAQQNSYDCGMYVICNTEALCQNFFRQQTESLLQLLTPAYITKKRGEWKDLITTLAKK

[3] = molecular target: T3, Sentrin-specific protease 6 (Homo sapiens, UniProt Q9GZR1); format: functional;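 note: Luminescence-based dose-response confirmatory assay of SENP6 inhibition, following up an ultra-high-throughput screen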
T3 sequence (Q9GZR1 whole entry): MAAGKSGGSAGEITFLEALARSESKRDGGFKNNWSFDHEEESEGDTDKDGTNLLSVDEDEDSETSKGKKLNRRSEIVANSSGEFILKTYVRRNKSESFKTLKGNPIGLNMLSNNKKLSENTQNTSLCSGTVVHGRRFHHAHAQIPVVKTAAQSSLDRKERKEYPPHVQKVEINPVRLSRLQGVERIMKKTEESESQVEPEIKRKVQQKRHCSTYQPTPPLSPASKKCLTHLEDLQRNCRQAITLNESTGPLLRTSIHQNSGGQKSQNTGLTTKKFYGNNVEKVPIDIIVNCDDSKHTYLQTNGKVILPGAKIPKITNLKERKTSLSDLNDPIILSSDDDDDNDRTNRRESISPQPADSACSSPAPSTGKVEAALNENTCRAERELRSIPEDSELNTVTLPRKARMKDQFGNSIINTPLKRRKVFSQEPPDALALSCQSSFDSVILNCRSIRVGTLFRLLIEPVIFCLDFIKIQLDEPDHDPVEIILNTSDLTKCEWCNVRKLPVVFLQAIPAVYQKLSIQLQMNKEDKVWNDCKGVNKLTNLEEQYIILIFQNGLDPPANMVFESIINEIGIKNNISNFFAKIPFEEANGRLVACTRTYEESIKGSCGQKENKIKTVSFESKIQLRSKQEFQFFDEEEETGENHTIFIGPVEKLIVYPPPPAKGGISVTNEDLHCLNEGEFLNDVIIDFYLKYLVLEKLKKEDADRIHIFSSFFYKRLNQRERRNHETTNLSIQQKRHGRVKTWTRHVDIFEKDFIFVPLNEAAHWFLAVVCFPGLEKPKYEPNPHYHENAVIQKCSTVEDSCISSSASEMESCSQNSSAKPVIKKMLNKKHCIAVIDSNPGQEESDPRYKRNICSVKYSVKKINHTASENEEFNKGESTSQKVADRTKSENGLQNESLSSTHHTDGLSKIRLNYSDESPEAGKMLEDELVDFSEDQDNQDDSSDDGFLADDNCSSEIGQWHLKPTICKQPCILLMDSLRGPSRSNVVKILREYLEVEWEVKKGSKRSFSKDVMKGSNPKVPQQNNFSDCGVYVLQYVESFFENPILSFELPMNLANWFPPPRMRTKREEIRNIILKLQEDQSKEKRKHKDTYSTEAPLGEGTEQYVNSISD

Caspase-3 = molecular target: T4, Caspase-3 (Homo sapiens, UniProt P42574); format: functional;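 note: Dose-response selectivity test against caspase-3 for candidate inhibitors of sentrin-specific proteases (SENPs)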
T4 sequence (P42574 whole entry): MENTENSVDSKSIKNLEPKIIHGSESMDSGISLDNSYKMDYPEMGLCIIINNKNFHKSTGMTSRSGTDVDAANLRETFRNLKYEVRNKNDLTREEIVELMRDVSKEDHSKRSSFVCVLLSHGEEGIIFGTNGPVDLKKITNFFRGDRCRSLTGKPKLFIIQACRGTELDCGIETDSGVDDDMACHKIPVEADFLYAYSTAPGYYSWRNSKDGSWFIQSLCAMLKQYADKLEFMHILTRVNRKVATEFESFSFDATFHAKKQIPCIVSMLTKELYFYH

[4] = molecular target: T5, Sentrin-specific protease 7 (Homo sapiens, UniProt Q9BQF6); format: functional;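 note: Luminescence-based dose-response confirmation of ultra-high-throughput screening hits, measuring inhibition of SENP7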
T5 sequence (Q9BQF6 whole entry): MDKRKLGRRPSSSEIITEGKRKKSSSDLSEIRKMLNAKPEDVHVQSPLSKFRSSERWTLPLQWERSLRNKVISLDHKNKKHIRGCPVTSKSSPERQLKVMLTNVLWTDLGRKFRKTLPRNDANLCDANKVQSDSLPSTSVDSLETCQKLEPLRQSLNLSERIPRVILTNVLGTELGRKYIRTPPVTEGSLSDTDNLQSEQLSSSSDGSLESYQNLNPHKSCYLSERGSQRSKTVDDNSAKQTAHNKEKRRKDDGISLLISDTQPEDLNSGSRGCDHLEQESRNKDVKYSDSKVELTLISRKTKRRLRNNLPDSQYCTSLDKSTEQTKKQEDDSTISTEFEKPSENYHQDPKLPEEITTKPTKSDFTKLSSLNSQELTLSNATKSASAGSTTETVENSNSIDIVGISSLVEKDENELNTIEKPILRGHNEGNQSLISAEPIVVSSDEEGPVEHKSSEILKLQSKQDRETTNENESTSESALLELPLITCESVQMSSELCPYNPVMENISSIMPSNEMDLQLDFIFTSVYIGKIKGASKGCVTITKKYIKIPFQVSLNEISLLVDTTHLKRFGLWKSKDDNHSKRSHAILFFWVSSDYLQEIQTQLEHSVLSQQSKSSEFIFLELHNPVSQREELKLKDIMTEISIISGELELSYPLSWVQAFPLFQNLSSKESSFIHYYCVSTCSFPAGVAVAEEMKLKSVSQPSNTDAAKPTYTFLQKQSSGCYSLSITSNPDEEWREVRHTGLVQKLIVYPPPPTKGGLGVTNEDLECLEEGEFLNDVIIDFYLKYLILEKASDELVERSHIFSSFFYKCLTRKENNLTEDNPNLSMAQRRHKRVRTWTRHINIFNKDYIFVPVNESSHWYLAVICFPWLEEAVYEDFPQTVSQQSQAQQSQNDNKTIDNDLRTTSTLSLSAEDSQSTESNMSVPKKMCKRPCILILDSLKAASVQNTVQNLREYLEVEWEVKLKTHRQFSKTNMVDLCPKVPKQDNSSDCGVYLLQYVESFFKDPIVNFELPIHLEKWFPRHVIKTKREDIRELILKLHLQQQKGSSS

Paired box protein Pax-8 = Paired box protein Pax-8 (Homo sapiens, UniProt Q06710); test: inhibitors of PAX8-driven TPO luciferase reporter, dose response, RMG-I cells, cherry-pick (AID 687027); format: functional, cell-based;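 note: luciferase reporter driven by Pax8 target thyroperoxidase promoter measured by SteadyGlo luminescence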
[5] = non-specific cell cytotoxicity, dose response, cytotoxicity control for PAX8 inhibitor project, plate reader, dry powder samples (AID 743021); format: functional, cell-based
[6] = molecular target: Peroxisome proliferator-activated receptor gamma/Nuclear receptor coactivator 3 (Homo sapiens, UniProt P37231); test: TR-FRET dose response biochemical High Throughput Screening assay for agonists of the steroid receptor coactivator 3 (SRC-3) recruitment by the peroxisome proliferator-activated receptor gamma (PPAR gamma): non-selective agonists. [Related pubchem assays: 1301 (Confirmation screen.), 1048 (Primary screen.)]; format: functional
[7] = molecular target: Peroxisome proliferator-activated receptor gamma/Nuclear receptor coactivator 2 (Homo sapiens, UniProt P37231); test: (§1) TR-FRET dose response biochemical High Throughput Screening assay for agonists of the steroid receptor coactivator 2 (SRC-2) recruitment by the peroxisome proliferator-activated receptor gamma (PPAR gamma): non-selective agonists. [Related pubchem assays: 1297, 1032 ]; format: functional
[8] = molecular target: Peroxisome proliferator-activated receptor gamma/Nuclear receptor coactivator 1 (Homo sapiens, UniProt P37231); test: as §1, with “1 (SRC-1)” for “2 (SRC-2)”, “assays (depositor defined):AID1300, AID1808, AID504735, AID631]” for “assays: 1297, 1032 ]”; format: protein assay
Major prion protein = Major prion protein (Homo sapiens, UniProt P04156); format: functional, cell-based
[9] = ZM109 Env clade C HIV-1 fusion inhibitors, dose response, HeLa effector, CEM target cells, luciferase, cherry-pick (AID 652058); format: functional, cell-based
[10] = inhibitors of clade B AD8 Env fusion, dose response, cell-based, cherry-pick (AID 652062); format: functional;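 note: luciferase signal from cell-cell fusion driven by HIV-1 clade B AD8 Env; potency is for inhibitors of fusion seen as a drop in luminescence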
[11] = off-target signal loss in HeLa-CEM21 co-culture – HeLa F-luc CTL cells, cherry-picked, counter-screen for HIV-1 Env fusion inhibitor project, dose response (AID 652040); format: functional, cell-based;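 note: potency for signal decrease marking cytotoxic or nonspecific inhibition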
[12] = inhibitors of HIV Env-driven cell fusion, dose response, cherry-pick (AID 652057); format: functional, cell-based

Clc1ccccc1OCc1nn2c(-c3ccncc3)nnc2s1
IC50 [1]: 8.4 µM (active)

CC(C)OCCCNC1=C(Cl)C(=O)c2ccccc2C1=O
IC50 [2]: 25.7 µM (active) | IC50 [3]: 8.48 µM (active) | IC50 (Caspase-3): 6.38 µM (active) | IC50 [4]: 19.4 µM (active)

COc1cccc(N(C(=O)c2ccco2)c2nc(-c3sc(NC(=O)c4ccco4)nc3C)cs2)c1
AC50 (Paired box protein Pax-8): 2.1 µM (active) | AC50 [5]: 62 µM (active)

COC(=O)C1=C(C)N(Cc2ccc(C(F)(F)F)cc2)C(NCc2ccccc2)=NC1c1cccc(Cl)c1 (centres undefined)
AC50 (Paired box protein Pax-8): 12.3 µM (active) | AC50 [5]: 20.9 µM (active)

CCCCNC(=O)CSc1nc(CCC)nc2ccccc12
EC50 [6]: > 79.4 µM (not active) | EC50 [7]: > 79.4 µM (not active) | EC50 [8]: > 79.4 µM (inactive) | IC50 (cells): > 138 µM (inactive) | IC50 (Major prion protein): 14.7 µM (inactive)

CC(C)CCN(C(=O)c1csnn1)C(C(=O)NC1CCCC1)c1ccc(F)cc1 (centres undefined)
AC50 [9]: 7.51 µM (active) | AC50 [10]: 5.93 µM (active) | AC50 [11]: 5.56 µM (active) | AC50 [12]: 4.72 µM (active)

COc1cc(CNCc2ccc(OC)c3ccccc23)cc(OC)c1OC
AC50 [9]: 31.8 µM (active) | AC50 [10]: 51 µM (active) | AC50 [11]: > 70 µM (inactive) | AC50 [12]: 23.8 µM (active)

COc1ccc(Oc2ccc(/C=C/C(=O)c3cccc(OC)c3)cc2[N+](=O)[O-])cc1
AC50 (Paired box protein Pax-8): 14.5 µM (active) | AC50 [5]: 54.3 µM (active)

CCOC(=O)c1cc(-c2cc3ccccc3o2)[nH]n1
IC50 [2]: 34.8 µM (active) | IC50 [3]: 21.6 µM (active) | IC50 (Caspase-3): 15.4 µM (active) | IC50 [4]: 5.55 µM (active)

O=C(O)c1ccc(NC2=C(N3CCOCC3)C(=O)c3ccccc3C2=O)cc1
IC50 [1]: 35.8 µM (active)
